Measured values as given in patent US8841233B2, “Herbicidal compositions comprising 4-amino-3-chloro-5-fluoro-6-(4-chloro-2-fluoro-3-methoxyphenyl) pyridine-2-carboxylic acid or a derivative thereof and 4-hydroxyphenyl-pyruvate dioxygenase (HPPD) inhibitors” (Dow Agrosciences LLC, priority 2012, dated 2014).

System: ECHOR
Experiment: In-water applied weed control, transplanted paddy rice, greenhouse (Example II)
Format: in vivo, Echinochloa oryzoides (Ard.) Fritsch
Protocol: Evaluation of in-Water Applied Herbicidal Mixtures for Weed Control in Transplanted Paddy Rice
Weed seeds or nutlets of the desired test plant species were planted in puddled soil (mud) prepared by mixing a shredded, non-sterilized mineral soil (50.5 percent silt, 25.5 percent clay, and 24 percent sand, with a pH of about 7.6 and an organic matter content of about 2.9 percent) and water at a 1:1 volumetric ratio. The prepared mud was dispensed in 365 mL aliquots into 16-ounce (oz.) non-perforated plastic pots with a surface area of 86.59 square centimeters (cm^2) leaving a headspace of 3 centimeters (cm) in each pot. Mud was allowed to dry overnight prior to planting or transplanting. Rice seeds were planted in Sun Gro MetroMix® 306 planting mixture, which typically has a pH of 6.0 to 6.8 and an organic matter content of about 30 percent, in plastic plug trays. Seedlings at the second or third leaf stage of growth were transplanted into 840 mL of mud contained in 32-oz. non-perforated plastic pots with a surface area of 86.59 cm^2 4 days prior to herbicide application. The paddy was created by filling the headspace of the pots with 2.5 to 3 cm of water. When required to ensure good germination and healthy plants, a fungicide treatment and/or other chemical or physical treatment was applied. The plants were grown for 4-22 days in a greenhouse with an approximate 14 h photoperiod which was maintained at about 29′C during the day and 26° C. during the night. Nutrients were added as Osmocote® (19:6:12, N:P:K+ minor nutrients) at 2 g per 16-oz. pot and 4 g per 32-oz. pot. Water was added on a regular basis to maintain the paddy flood, and supplemental lighting was provided with overhead metal halide 1000-Watt lamps as necessary. The plants were employed for testing when they reached the first through fourth true leaf stage.
Treatments consisted of the acid or esters of 4-amino-3-chloro-5-fluoro-6-(4-chloro-2-fluoro-3-methoxy-phenyl)pyridine-2-carboxylic acid (compound A) each formulated as an SC (suspension concentrate) and various herbicidal components alone and in combination. Forms of compound A were applied on an acid equivalent basis.
Other herbicidal components were applied on an active ingredient basis and included 4-hydroxyphenyl pyruvate dioxygenase (HPPD)-inhibiting herbicides mesotrione formulated as Callisto®, sulcotrione formulated as Mikado®, pyrazolynate formulated as Sunbird® 10% GR, and benzobicyclon formulated as Benzobicyclon 3.5% or technical material.
Treatment requirements for each compound or herbicidal component were calculated based upon the rates being tested, the concentration of active ingredient or acid equivalent in the formulation, an application volume of 2 mL per component per pot, and an application area of 86.59 cm^2 per pot.
For formulated compounds, a measured amount was placed in an individual 100 or 200 mL glass vial and was dissolved in a volume of 1.25% (v/v) Agri-Dex® crop oil concentrate to obtain application solutions.
For technical grade compounds, a weighed amount was placed in an individual 100 to 200 mL glass vial and was dissolved in a volume of acetone to obtain concentrated stock solutions. […] The concentrated stock solutions obtained were diluted with an equivalent volume of an aqueous mixture containing 2.5% (v/v) crop oil concentrate so that the final application solutions contained 1.25% (v/v) crop oil concentrate.
Applications were made by injecting with a pipetter appropriate amounts of the application solutions, individually and sequentially, into the aqueous layer of the paddy. Control plants were treated in the same manner with the solvent blank. Applications were made so that all treated plant material received the same concentrations of acetone and crop oil concentrate.
The treated plants and control plants were placed in a greenhouse as described above and water was added as needed to maintain a paddy flood. […]

SMILES	Visual Weed Control (%) - 22 DAA ECHOR Obs (21.2 gae/ha) [%]	Visual Weed Control (%) - 20 DAA ECHOR Obs (42.4 gae/ha) [%]	Visual Weed Control (%) - 22 DAA ECHOR Obs (42.4 gae/ha) [%]	Visual Weed Control (%) - 20 DAA ECHOR Obs (84.8 gae/ha) [%]	Visual Weed Control (%) - 20 DAA ECHOR Obs (4.38 gae/ha) [%]	Visual Weed Control (%) - 21 DAA ECHOR Obs (4.38 gae/ha) [%]	Visual Weed Control (%) - 20 DAA ECHOR Obs (8.75 gae/ha) [%]	Visual Weed Control (%) - 21 DAA ECHOR Obs (8.75 gae/ha) [%]	Visual Weed Control (%) - 22 DAA ECHOR Obs (8.75 gae/ha) [%]	Visual Weed Control (%) - 20 DAA ECHOR Obs (17.5 gae/ha) [%]	Visual Weed Control (%) - 21 DAA ECHOR Obs (17.5 gae/ha) [%]	Visual Weed Control (%) - 22 DAA ECHOR Obs (17.5 gae/ha) [%]	Visual Weed Control (%) - 21 DAA ECHOR Obs (96 gae/ha) [%]
COc1c(Cl)ccc(-c2nc(C(=O)O)c(Cl)c(N)c2F)c1F [Compound A Acid, 4-amino-3-chloro-6-(4-chloro-2-fluoro-3-methoxyphenyl)-5-fluoropyridine-2-carboxylic acid]	20	18	40	33	–	–	–	–	–	–	–	–	–
COc1c(Cl)ccc(-c2nc(C(=O)OCc3ccccc3)c(Cl)c(N)c2F)c1F [Compound A Benzyl Ester, benzyl ester of 4-amino-3-chloro-5-fluoro-6-(4-chloro-2-fluoro-3-methoxy-phenyl)pyridine-2-carboxylic acid]	–	–	–	–	10	25	20	25	40	30	60	95	80
